Source: PubChem BioAssay (NCI)
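Abbreviation: GI50, concentration required for 50% inhibition of growth. The concentration for full growth arrest is given as TGI.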

What was measured:
Assay in all cases: DTP human tumour cell line panel, 384-well format
HOP-62 NSCLC = test system: HOP-62 NSCLC
CCRF-CEM leukemia = test system: CCRF-CEM leukemia
SK-OV-3 ovarian = test system: SK-OV-3 ovarian
HL-60(TB) leukemia = test system: HL-60(TB) leukemia
M14 melanoma = test system: M14 melanoma
SK-MEL-5 melanoma = test system: SK-MEL-5 melanoma
UACC-257 melanoma = test system: UACC-257 melanoma
ACHN renal = test system: ACHN renal
HCT-15 colon = test system: HCT-15 colon
SF-295 CNS = test system: SF-295 CNS
RXF 393 renal = test system: RXF 393 renal
NCI-H460 NSCLC = test system: NCI-H460 NSCLC
MCF7 breast = test system: MCF7 breast
HCC-2998 colon = test system: HCC-2998 colon
TK-10 renal = test system: TK-10 renal
A498 renal = test system: A498 renal
UO-31 renal = test system: UO-31 renal
HCT-116 colon = test system: HCT-116 colon
SF-268 CNS = test system: SF-268 CNS
NCI-H23 lung = test system: NCI-H23 lung
DU-145 prostate = test system: DU-145 prostate
SK-MEL-28 melanoma = test system: SK-MEL-28 melanoma
OVCAR-8 ovarian = test system: OVCAR-8 ovarian
NCI-H322M lung = test system: NCI-H322M lung
OVCAR-5 ovarian = test system: OVCAR-5 ovarian
IGROV1 ovarian = test system: IGROV1 ovarian
BT-549 breast = test system: BT-549 breast
NCI-H522 lung = test system: NCI-H522 lung
SNB-75 CNS = test system: SNB-75 CNS
NCI/ADR-RES ovarian = test system: NCI/ADR-RES ovarian
PC-3 prostate = test system: PC-3 prostate
HT29 colon = test system: HT29 colon
OVCAR-3 ovarian = test system: OVCAR-3 ovarian
SN12C renal = test system: SN12C renal
MDA-MB-231 breast = test system: MDA-MB-231 breast
U251 glioblastoma = test system: U251 glioblastoma
NCI-H226 lung = test system: NCI-H226 lung
HS 578T breast = test system: HS 578T breast
T-47D breast = test system: T-47D breast
MOLT-4 leukemia = test system: MOLT-4 leukemia
SNB-19 CNS = test system: SNB-19 CNS
MDA-MB-468 breast = test system: MDA-MB-468 breast
SW-620 colon = test system: SW-620 colon
CAKI-1 renal = test system: CAKI-1 renal
786-0 renal = test system: 786-0 renal
LOX IMVI melanoma = test system: LOX IMVI melanoma
HOP-92 NSCLC = test system: HOP-92 NSCLC
MDA-MB-435 melanoma = test system: MDA-MB-435 melanoma
RPMI-8226 leukemia = test system: RPMI-8226 leukemia
SF-539 CNS = test system: SF-539 CNS
COLO 205 colon = test system: COLO 205 colon
KM12 colon = test system: KM12 colon
A549 NSCLC = test system: A549 NSCLC
UACC-62 melanoma = test system: UACC-62 melanoma
OVCAR-4 ovarian = test system: OVCAR-4 ovarian
MALME-3M melanoma = test system: MALME-3M melanoma
K-562 leukemia = test system: K-562 leukemia
EKVX NSCLC = test system: EKVX NSCLC

## N#Cc1c(Oc2ccc(F)c(NC(=O)Cc3cccc(C(F)(F)F)c3)c2)ccc2nc(NC(=O)C3CC3)sc12
HOP-62 NSCLC
  GI50: 1700 nM
  TGI: > 100000 nM
CCRF-CEM leukemia
  GI50: 263 nM
  TGI: 2970 nM
SK-OV-3 ovarian
  GI50: 1790 nM
  TGI: > 100000 nM
HL-60(TB) leukemia
  GI50: 80.5 nM
  TGI: 914 nM
M14 melanoma
  GI50: 12.5 nM
  TGI: 117 nM
SK-MEL-5 melanoma
  GI50: 17.1 nM
  TGI: 1680 nM
UACC-257 melanoma
  GI50: 26.6 nM
  TGI: 138 nM
ACHN renal
  GI50: 755 nM
  TGI: > 100000 nM
HCT-15 colon
  GI50: 401 nM
  TGI: > 100000 nM
SF-295 CNS
  GI50: 516 nM
  TGI: > 100000 nM
RXF 393 renal
  GI50: 159 nM
  TGI: 1600 nM
NCI-H460 NSCLC
  GI50: 745 nM
  TGI: > 100000 nM
MCF7 breast
  GI50: 717 nM
  TGI: > 100000 nM
HCC-2998 colon
  GI50: 291 nM
  TGI: 7010 nM
TK-10 renal
  GI50: 311 nM
  TGI: 3520 nM
A498 renal
  GI50: 1700 nM
  TGI: 5200 nM
UO-31 renal
  GI50: 427 nM
  TGI: 2220 nM
HCT-116 colon
  GI50: 158 nM
  TGI: 1850 nM
SF-268 CNS
  GI50: 39.5 nM
  TGI: 263 nM
NCI-H23 lung
  GI50: 98.9 nM
  TGI: 1260 nM
DU-145 prostate
  GI50: 2770 nM
  TGI: > 100000 nM
SK-MEL-28 melanoma
  GI50: 16.7 nM
  TGI: 68 nM
OVCAR-8 ovarian
  GI50: 746 nM
  TGI: > 100000 nM
NCI-H322M lung
  GI50: 1330 nM
  TGI: > 100000 nM
OVCAR-5 ovarian
  GI50: 677 nM
  TGI: 9850 nM
IGROV1 ovarian
  GI50: 434 nM
  TGI: 3110 nM
BT-549 breast
  GI50: 1320 nM
  TGI: > 100000 nM
NCI-H522 lung
  GI50: 484 nM
  TGI: 5650 nM
SNB-75 CNS
  GI50: 1300 nM
  TGI: 4360 nM
NCI/ADR-RES ovarian
  GI50: 1030 nM
  TGI: 4650 nM
PC-3 prostate
  GI50: 1420 nM
  TGI: > 100000 nM
HT29 colon
  GI50: 64.2 nM
  TGI: > 100000 nM
OVCAR-3 ovarian
  GI50: 2410 nM
  TGI: 82100 nM
SN12C renal
  GI50: 461 nM
  TGI: 4710 nM
MDA-MB-231 breast
  GI50: 78.3 nM
  TGI: 2520 nM
U251 glioblastoma
  GI50: 486 nM
  TGI: 8260 nM
NCI-H226 lung
  GI50: 312 nM
  TGI: 4190 nM
HS 578T breast
  GI50: 698 nM
  TGI: 2520 nM
T-47D breast
  GI50: 1200 nM
  TGI: 6700 nM
MOLT-4 leukemia
  GI50: 97.5 nM
  TGI: 238 nM
SNB-19 CNS
  GI50: 2630 nM
  TGI: > 100000 nM
MDA-MB-468 breast
  GI50: 1060 nM
  TGI: 6560 nM
SW-620 colon
  GI50: 470 nM
  TGI: 8510 nM
CAKI-1 renal
  GI50: 1140 nM
  TGI: 8630 nM
786-0 renal
  GI50: 913 nM
  TGI: 7150 nM
LOX IMVI melanoma
  GI50: 41.8 nM
  TGI: 992 nM
HOP-92 NSCLC
  GI50: 783 nM
  TGI: 2250 nM
MDA-MB-435 melanoma
  GI50: 62.2 nM
  TGI: > 100000 nM
RPMI-8226 leukemia
  GI50: 198 nM
  TGI: 847 nM
SF-539 CNS
  GI50: 1070 nM
  TGI: 3060 nM
COLO 205 colon
  GI50: 31.1 nM
  TGI: 2640 nM
KM12 colon
  GI50: 1210 nM
  TGI: > 100000 nM
A549 NSCLC
  GI50: 1870 nM
  TGI: > 100000 nM
UACC-62 melanoma
  GI50: 15.2 nM
  TGI: 106 nM
OVCAR-4 ovarian
  GI50: 3640 nM
  TGI: > 100000 nM
MALME-3M melanoma
  TGI: 30.9 nM
K-562 leukemia
  GI50: 114 nM
  TGI: 300 nM
EKVX NSCLC
  GI50: 3800 nM
  TGI: 35600 nM
